In PMC8507260, “A2E-induced inflammation and angiogenesis in RPE cells in vitro are modulated by PPAR-α, -β/δ, -γ, and RXR antagonists and by norbixin” (Aging (Albany NY), 2021):

Key:
RXR-α = biological target: T1, RXR-α (Homo sapiens, UniProt P19793); assay: Competition binding to RXR-α against [3H]9-cis-retinoic acid (Eurofins Cerep); conditions: for IC50 / Kd: competition with [3H]9-cis-retinoic acid
T1 construct: Eurofins Cerep (contract laboratory that ran the assay)
T1 sequence (P19793 1-462): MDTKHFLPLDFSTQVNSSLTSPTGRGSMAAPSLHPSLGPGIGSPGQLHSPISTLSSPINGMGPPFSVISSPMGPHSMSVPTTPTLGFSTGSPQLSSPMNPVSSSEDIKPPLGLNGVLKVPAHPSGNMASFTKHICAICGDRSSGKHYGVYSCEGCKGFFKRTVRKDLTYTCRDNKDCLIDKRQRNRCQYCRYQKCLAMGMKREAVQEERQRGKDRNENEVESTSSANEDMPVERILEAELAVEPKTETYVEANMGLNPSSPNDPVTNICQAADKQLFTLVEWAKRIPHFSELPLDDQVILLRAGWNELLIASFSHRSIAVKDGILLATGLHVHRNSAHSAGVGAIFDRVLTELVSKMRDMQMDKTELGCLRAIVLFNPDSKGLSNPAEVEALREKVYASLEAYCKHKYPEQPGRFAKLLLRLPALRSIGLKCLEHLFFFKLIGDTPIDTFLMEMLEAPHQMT
Method: To confirm this hypothesis, we tested by competition experiments whether A2E and norbixin could bind to RXR-α. […] In similar transactivation experiments, we tested the activity of norbixin alone or added to A2E on RXR transactivation.
(§1) Binding studies of A2E and norbixin to RXR-α and PPAR-α and γ were performed in vitro by an external laboratory (Eurofins Cerep, Celle L’Evescault, France) through competition experiments between A2E or norbixin and [^3H]9-cis-retinoic acid as the natural ligand of RXR-α, [^3H]GW7647 an agonist of PPAR-α and [^3H]Rosiglitazone an agonist of PPAR-γ.

PPAR-α = biological target: T2, PPAR-α (Homo sapiens, UniProt Q07869); assay: Competition binding to PPAR-α against [3H]GW7647 (Eurofins Cerep); conditions: competition with [3H]GW7647
T2 construct: Eurofins Cerep (contract laboratory that ran the assay)
T2 sequence (Q07869 1-468): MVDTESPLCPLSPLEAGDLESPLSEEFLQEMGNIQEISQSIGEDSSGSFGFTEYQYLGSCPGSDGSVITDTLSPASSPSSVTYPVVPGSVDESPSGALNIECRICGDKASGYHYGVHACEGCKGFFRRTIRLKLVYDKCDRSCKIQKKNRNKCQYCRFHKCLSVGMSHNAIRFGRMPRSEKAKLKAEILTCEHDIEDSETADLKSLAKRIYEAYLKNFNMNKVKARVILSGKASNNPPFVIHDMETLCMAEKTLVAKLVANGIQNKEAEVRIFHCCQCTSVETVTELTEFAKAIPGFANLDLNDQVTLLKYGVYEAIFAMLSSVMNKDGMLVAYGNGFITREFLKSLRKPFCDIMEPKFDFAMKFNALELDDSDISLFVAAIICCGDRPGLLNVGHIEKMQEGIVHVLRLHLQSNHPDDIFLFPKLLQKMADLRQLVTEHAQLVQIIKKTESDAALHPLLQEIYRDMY
Source text: The binding and activity of norbixin on PPARs remains controversial, thus, firstly, we performed competition experiments in vitro between norbixin and [^3H] GW7647, an agonist of PPAR-α, and [^3H] rosiglitazone, an agonist of PPAR-γ. […] Secondly, we tested whether norbixin could induce the transactivation of PPAR-α, -β/δ or -γ in the context of RPE cells in vitro by co-transfecting porcine RPE cells with a plasmid expressing each of the full-length PPAR isoforms and a plasmid expressing luciferase under the control of the PPAR response element. […] Then, we wanted to determine if norbixin could modulate the transactivation of PPAR isoforms induced by specific agonists.
as §1

PPAR-β/δ = assay: Transactivation of over-expressed PPAR-β/δ, luciferase reporter in porcine RPE cells; assay type: cell-based, pig; conditions: for transactivation of over-expressed PPAR-β/δ by the compound alone: vs DMSO control, A2E 20 μM, NBX increasing concentrations
Method: Then the effects of A2E on the endogenous PPAR transactivation in porcine RPE cells were investigated by means of a luciferase assay. […] The level of transactivation of PPAR-α, -β/δ, or -γ isoforms by A2E was determined by co-transfection of porcine RPE cells with a plasmid expressing each of the full-length PPAR isoforms and a plasmid expressing luciferase under the control of the PPAR response element. […] All usual chemicals, primers, and HX531 were from Sigma (St. Louis, MO, USA). Reagents for cell culture, transfection and quantitative RT-PCR were from Thermo Fisher Scientific (Waltham, MA, USA). RNA extraction NucleoSpin® RNA kit was from Macherey Nagel (Düren, Germany). ECL prime and PVDF membrane were from Amersham GE Healthcare (Buckinghamshire, UK). Primary antibodies against the following proteins were used: GAPDH (Santa Cruz Biotechnology, Inc, Dallas, TX, USA); pAKT, AKT, pERK and ERK (Cell Signaling, Danvers, MA, USA). Secondary antibodies were from Jackson ImmunoResearch (Cambridgeshire, UK). […] Cignal Pathway Reporter Assay Kits were from QIAGEN (Frederick, MD, USA). The Dual-Luciferase Reporter Assay System was purchased from Promega (Madison, WI, USA). pcDNA 3.1 (+)-PPARα and pcDNA 3.1 (+)-PPARβ/δ (pig sequence) were purchased from Genscript (Piscataway, NJ, USA). pCMV6-XL4-PPARγ (human sequence) was purchased from Origene (Rockville, MD, USA).
After one week in culture, cells were trypsinized and transferred to a 96-well plate at a density of 6 × 10^4 cells/cm^2 in DMEM2%FCS. The next day, cells were transfected using the Cignal Reporter Assay Kits for PPAR, RXR, AP-1 and NF-κB, according to the manufacturer’s specifications. To measure the specific activation of PPAR isoforms, cells were also co-transfected with PPAR-α, PPAR-β/δ or PPAR-γ expression vectors. Transfection was performed with Lipofectamine and Plus Reagent in serum-free medium. 3 h after the transfection, the medium was replaced and treatments with the molecules to assay were performed. Luciferase activity was measured the next day using the Dual-Luciferase Reporter Assay System. The measurements were performed with a luminometer (Infinite M1000 from Tecan, Mannedorf, Switzerland). Firefly: Renilla activity ratios were calculated for each condition and ratios from transcription factor-responsive reporter transfections were divided by ratios from negative control transfections to obtain relative luciferase unit, as described by the manufacturer. At least 3 independent transfections were performed in triplicate for each condition.

Structure (SMILES) | IC50 (RXR-α) [µM] | Kd (RXR-α) [µM] | IC50 (PPAR-α) [µM] | Kd (PPAR-α) [µM] | effect on over-expressed PPAR-β/δ transactivation induced by A2E (PPAR-β/δ; A2E 20 μM + NBX 20 μM) | inhibition of PPAR-β/δ transactivation induced by GW0742 (PPAR-β/δ; GW0742 at 1 nM, NBX 20 μM) | transactivation of over-expressed PPAR-β/δ by the compound alone (PPAR-β/δ) | binding affinity of A2E for RXR-α relative to norbixin (higher) (RXR-α; ratio of KDs) [fold]
CC(/C=C/C=C(C)/C=C/C(=O)O)=C\C=C\C=C(C)\C=C\C=C(C)\C=C\C(=O)O (stereo in doubt) [norbixin, 9’-cis-norbixin] | 65 | 46 | 16.5 | 15 | fully abolished | did not inhibit significantly | did not demonstrate any transactivation activity | 
CC(C=CC1=C(C)CCCC1(C)C)=CC=CC(C)=Cc1cc(C=CC=C(C)C=CC2=C(C)CCCC2(C)C)cc[n+]1CCO [A2E, N-retinylidene-N-retinylethanolamine] | 6.1 | 4.3 | 42.7 | 41 |  |  | induced the transactivation | 10
